From ChEMBL document CHEMBL4765358, “Discovery of highly potent and selective antiparasitic new oxadiazole and hydroxy-oxindole small molecule hybrids” (Eur J Med Chem, 2020)

What was measured:
Trypanosoma cruzi [1] = test: Antitrypanosomal activity against Trypanosoma cruzi (MHOM/CH/00/Tulahuen C2, lacZ) amastigotes infected in HFF-1 cells assessed as reduction in parasite growth incubated for 120 hrs by CPRG/Igepal substrate based photometric method; type: functional, organism-based; settings: MHOM/CH/00/Tulahuen C2, HFF-1, 120 h
[2] = Cytotoxicity against human HFF-1 cells assessed as reduction in cell viability incubated for 120 hrs by MTS assay; type: cell-based
Leishmania infantum = test: Antileishmanial activity against Leishmania infantum MHOM/MA/67/ITMAP-263 infected in THP1 cells assessed as reduction in parasite growth incubated for 120 hrs by Giemsa staining based inverted microscopic analysis; type: functional, organism-based; settings: MHOM/MA/67/ITMAP-263, THP-1, 120 h
[3] = Cytotoxicity against human HepG2 cells assessed as reduction in cell viability incubated for 120 hrs by MTS assay; type: cell-based
Trypanosoma cruzi [4] = test: Antitrypanosomal activity against Trypanosoma cruzi (MHOM/CH/00/Tulahuen C2, lacZ) amastigotes infected in HFF-1 cells assessed as reduction in parasite growth at 300 uM incubated for 120 hrs by CPRG/Igepal substrate based photometric method relative to control; type: functional; settings: MHOM/CH/00/Tulahuen C2, HFF-1
Trypanosoma cruzi [5] = test: Antitrypanosomal activity against Trypanosoma cruzi (MHOM/CH/00/Tulahuen C2, lacZ) amastigotes infected in HFF-1 cells assessed as reduction in parasite growth at 150 uM incubated for 120 hrs by CPRG/Igepal substrate based photometric method relative to control; type: functional; settings: MHOM/CH/00/Tulahuen C2, HFF-1
Trypanosoma cruzi [6] = test: Antitrypanosomal activity against Trypanosoma cruzi (MHOM/CH/00/Tulahuen C2, lacZ) amastigotes infected in HFF-1 cells assessed as reduction in parasite growth at 75 uM incubated for 120 hrs by CPRG/Igepal substrate based photometric method relative to control; type: functional; settings: MHOM/CH/00/Tulahuen C2, HFF-1

SMILES | IC50 (Trypanosoma cruzi [1]) | CC50 at 120 h [2] | IC50 (Leishmania infantum) | CC50 at 120 h [3] | inhibition at 300 µM (Trypanosoma cruzi [4]) | inhibition at 150 µM (Trypanosoma cruzi [5]) | inhibition at 75 µM (Trypanosoma cruzi [6])
C=C(c1nc(-c2ccccc2)no1)C1(O)C(=O)N(CC)c2ccc(OC(F)(F)F)cc21 (stereo not drawn) | > 100 µM | > 64 µM | 11.1 µM | 10.4 µM | – | – | –
C=C(c1nc(-c2ccc(OC)cc2)no1)C(O)c1ccccc1[N+](=O)[O-] (stereo not drawn) | > 100 µM | 42.2 µM | 2.38 µM | 10.6 µM | – | – | –
C=Cc1nc(-c2ccccc2)no1 | 37.2 µM | > 64 µM | > 64 µM | > 64 µM | – | – | –
C=C(c1nc(-c2ccccc2)no1)C(O)c1cccc(F)c1 (stereo not drawn) | > 100 µM | > 64 µM | 7.29 µM | 14.1 µM | – | – | –
C=C(c1nc(-c2cc(OC)c(OC)c(OC)c2)no1)C(O)c1ccccc1 (stereo not drawn) | > 100 µM | > 64 µM | 12 µM | 27.4 µM | – | – | –
C=C(c1nc(-c2ccccc2)no1)C1(O)C(=O)N(CC)c2ccc(Cl)cc21 (stereo not drawn) | > 100 µM | > 64 µM | 2.5 µM | 6.78 µM | – | – | –
C=C(c1nc(-c2ccccc2)no1)C(O)c1cc(F)cc(F)c1 (stereo not drawn) | > 100 µM | > 64 µM | 5.12 µM | 7.92 µM | – | – | –
C=C(c1nc(-c2ccccc2)no1)C(O)c1ccc(C#N)cc1 (stereo not drawn) | > 100 µM | > 64 µM | 21.7 µM | 32 µM | – | – | –
C=C(c1nc(-c2ccc([N+](=O)[O-])cc2)no1)C1(O)C(=O)N(CC)c2ccc([N+](=O)[O-])cc21 (stereo not drawn) | > 64 µM | > 64 µM | 7.36 µM | 7.12 µM | – | – | –
C=C(c1nc(-c2ccccc2)no1)C(O)c1ccccc1[N+](=O)[O-] (stereo not drawn) | 58.4 µM | > 64 µM | 10.3 µM | 14 µM | – | – | –
C=C(c1nc(-c2ccc(Cl)cc2)no1)C1(O)C(=O)N(CC)c2ccc([N+](=O)[O-])cc21 (stereo not drawn) | > 64 µM | > 64 µM | 6.48 µM | 10.4 µM | – | – | –
C=C(c1nc(-c2ccccc2)no1)C(O)c1ccccn1 (stereo not drawn) | > 100 µM | 30.1 µM | 17.9 µM | 58.6 µM | – | – | –
C=C(c1nc(-c2ccccc2)no1)C(O)c1ccc(Br)cc1 (stereo not drawn) | 36.5 µM | > 64 µM | 43.9 µM | 41.1 µM | – | – | –
C=C(c1nc(-c2ccccc2)no1)C1(O)C(=O)N(CC)c2c(Cl)cc(Cl)cc21 (stereo not drawn) | > 100 µM | > 64 µM | 4.1 µM | 6.77 µM | – | – | –
C=C(c1nc(-c2ccc([N+](=O)[O-])cc2)no1)C(O)c1ccccc1 (stereo not drawn) | > 64 µM | > 64 µM | 37.5 µM | 27.1 µM | – | – | –
C=C(c1nc(-c2ccc(OC)cc2)no1)C(O)c1ccc(C#N)cc1 (stereo not drawn) | > 100 µM | > 64 µM | 3.89 µM | 13.6 µM | – | – | –
C=C(c1nc(-c2ccccc2)no1)C1(O)C(=O)N(CC)c2c(Cl)cccc21 (stereo not drawn) | > 100 µM | 62.1 µM | 4.85 µM | 13.5 µM | – | – | –
COc1cccc2c1C(=O)c1c(O)c3c(c(O)c1C2=O)C[C@@](O)(C(=O)CO)C[C@@H]3O[C@H]1C[C@H](N)[C@H](O)[C@H](C)O1 [DOXORUBICIN] | – | 0.53 µM | – | 0.77 µM | – | – | –
CCCCCCCCCCCCCCCCOP(=O)([O-])OCC[N+](C)(C)C [MILTEFOSINE] | – | – | 2.3 µM | – | – | – | –

The remaining molecules from weak to strong by IC50 (Trypanosoma cruzi [1]), led by results:

IC50 (Trypanosoma cruzi [1]) | SMILES | CC50 at 120 h [2] | IC50 (Leishmania infantum) | CC50 at 120 h [3] | inhibition at 300 µM (Trypanosoma cruzi [4]) | inhibition at 150 µM (Trypanosoma cruzi [5]) | inhibition at 75 µM (Trypanosoma cruzi [6])
26.7 µM | CCN1C(=O)C2(OCC=C2c2nc(-c3ccccc3)no2)c2cccc(Br)c21 (stereo not drawn) | 34.2 µM | 6.41 µM | 58.4 µM | – | – | –
19.3 µM | C=C(c1nc(-c2ccccc2)no1)C(O)CCCC (stereo not drawn) | > 64 µM | 35.9 µM | > 64 µM | – | – | –
15.6 µM | C=Cc1nc(-c2ccc(OC)cc2)no1 | > 64 µM | 25.2 µM | 58 µM | – | – | –
10.6 µM | C=C(c1nc(-c2ccccc2)no1)C1(O)C(=O)N(Cc2ccccc2)c2ccccc21 (stereo not drawn) | > 64 µM | 5.65 µM | 19.2 µM | – | – | –
8.8 µM | C=C(c1nc(-c2ccc(OC)cc2)no1)C(O)c1ccccc1C(F)(F)F (stereo not drawn) | > 64 µM | 8.55 µM | > 64 µM | – | – | –
8.2 µM | C=C(c1nc(-c2ccccc2)no1)C(O)c1ccccc1 (stereo not drawn) | > 64 µM | 9.81 µM | 27.2 µM | – | – | –
7.8 µM | C=C(c1nc(-c2ccccc2)no1)C(O)c1ccc([N+](=O)[O-])cc1 (stereo not drawn) | > 64 µM | 10.4 µM | 14.2 µM | – | – | –
5.6 µM | O=C(Cn1ccnc1[N+](=O)[O-])NCc1ccccc1 [BENZNIDAZOLE] | – | – | – | 100% | 92.8% | 85.5%
